Assay results published in patent US20220378756A1, “ACTIVATING PYRUVATE KINASE R” (FORMA Therapeutics, Inc., priority 2019, published 2022).
“Also recorded” adds a separate entry of the source.

How the values were obtained:
Human SCD cells = assay: Ex vivo sickling under severe hypoxic conditions (2% oxygen); type: cell-based; conditions: 10 μM
Experimental: Red blood cells from SCD patients were used to evaluate the effects of Compound 1 on Hgb affinity for oxygen (i.e., oxygen affinity) and sickling under hypoxic conditions. Cells were incubated at 37° C. for 1, 2, and 3 hr with HEPES buffered saline (HBS) (untreated), HBS+dimethyl sulfoxide (DMSO) (vehicle), or 10 μM Compound 1. To assess oxygen dissociation, Hgb oxygen equilibrium curves were collected during deoxygenation.
Compound 1 (10 μM) reduced cell sickling under severe hypoxic conditions of 2% oxygen (PO2 of <20 mmHg) for up to 20 min (Table 9).

[1] = Phase 1 SAD/MAD, healthy volunteers: safety; type: in vivo, human
Source text: This is a first-in-human (FIH), Phase 1 study of Compound 1 that will characterize the safety, PK, and PD of Compound 1 after a single dose and after repeated dosing first in healthy adult volunteers and then in adolescents or adults with sickle cell disease. Initially, a dose range of Compound 1 in single ascending dose (SAD) escalation cohorts will be explored in healthy subjects. Enrollment of healthy subjects into 2-week multiple ascending dose (MAD) escalation cohorts will be initiated once the safety and PK from at least two SAD cohorts is available to inform the doses for the 2-week MAD portion of the study. The MAD cohorts will then run in parallel to the single dose cohorts. A single dose cohort is planned to understand food effects (FE) on the PK of Compound 1. […] Multiple dose studies in SCD subjects will then be initiated upon completion of MAD studies in healthy volunteers. Compound 1 will be administered in 25 mg and 100 mg tablets delivered orally.
In this study, SAD/MAD cohorts are randomized (3 to 1) to receive Compound 1 or placebo (P). Compound 1 was evaluated first in 4 healthy SAD cohorts and 4 healthy MAD (14-day dosing period) cohorts. Based on the safety, and PK/PD profile from HS, Compound 1 is then evaluated in 1 SCD SAD cohort and 2 SCD MAD cohorts. Specifically, based on the safety and pharmacokinetic/pharmacodynamics (PK/PD) profile in healthy volunteer studies, Compound 1 is evaluated in patients (pts) with SCD, first in a single dose (SD or SAD) cohort and then in multiple-dose (MD or MAD) cohorts (14-day and 12-week). Safety assessments include AEs, vital signs, ECGs and laboratory parameters. PK/PD blood sampling was performed on Day 1 (SAD/MAD) and Day 14 (MAD) and up to 72 h after the last dose and at the end-of-study visit. PD parameters included 2,3-DPG, ATP, and p50 in all cohorts with additional PD studies (including oxygen scan) performed only in the SCD cohorts. PD parameters included 2,3-DPG, ATP, p50, RBC deformability with controlled deoxygenation and reoxygenation (Lorrca® oxygen scan) and varying osmolality (Lorrca® osmoscan)). To maintain study blind, pt identifiers were removed when needed.
Four healthy SAD cohorts were evaluated at doses of 200, 400, 700, and 1000 mg, and four healthy MAD cohorts received 200 to 600 mg total daily doses for 14 days at QD or BID dosing (100 mg BID, 200 mg BID, 300 mg BID, and 400 mg QD). In the food effect (FE) cohort, 10 healthy subjects received 200 mg of Compound 1 QD with and without food.

[2] = test system: H295R adreno-cortical carcinoma cell line; assay: Cell viability (MTT Kit); type: cell-based
Experimental: To assess potential effects on steroidogenesis, Compound 1 was screened for steroid modulation in vitro using the H295R adreno-cortical carcinoma cell line (at 200 to 0.0002 μM) and in an assay to monitor cell viability (MTT Kit). Compound 1 indicated steroid modulation potential (% over vehicle) only at 200 µM, the top concentration tested, with 100% cellular viability at concentrations ≤20 μM (90% viability at 200 μM).

[3] = test system: estradiol and testosterone levels; assay: Circulating estradiol and testosterone in healthy subjects, 14 days; type: in vivo, human; conditions: healthy subjects, 100, 200, 300 mg BID and 400 mg QD for 14 days; days 8, 14, 17
Experimental: Effects on circulating levels of estradiol and testosterone in male and female healthy subjects receiving Compound 1 or placebo for a treatment period of 14 days were evaluated. Compound 1 was administered twice daily (BID) at dose levels of 100 mg, 200 mg, and 300 mg, and once daily (QD) at a dose level of 400 mg. Each dosing cohort was comprised of 9 subjects treated with Compound 1 and 3 subjects treated with placebo. Testosterone and estradiol levels were assessed prior to dosing (baseline), and then on days 8, 14 and 17.

In the case of `O=C([C@H](CO)c1ccccc1)N1CC2=C(C1)CN(S(=O)(=O)c1cnc3c(c1)OCCO3)C2` (single isomer, unassigned) [Compound 1], the “% Protection” value (Human SCD cells; 15 min in hypoxic conditions (maximum)) is reported as 16%, the “Net % of Sickled Cells” value (Human SCD cells; 20 min in hypoxic conditions, DMSO 71) is reported as 60% and the “Grade 1 headache, incidence” value ([1]; HS receiving 14 days of dosing) is reported as 28%. The “Grade 1 headache, incidence” value ([1]; HS receiving a single dose) was 4%, the “related TEAE of grade 2 or less: headache” value ([1]; MAD cohorts) was 4 n and the “related TEAE of grade 2 or less: palpitations” value ([1]; MAD cohorts) was 1 n. For the same molecule, the “related TEAE of grade 2 or less: somnolence” value ([1]; MAD cohorts) was 1 n, the “Any TEAE, n (%)” value ([1]; MAD, N = 36) was 15 (42) n (%) and the “Any grade 3 or greater TEAE, n (%)” value ([1]; MAD, N = 36) was 0 n (%). The “Drug interruption, reduction, or discontinuation due to TEAE, n (%)” value ([1]; MAD, N = 36) was 0 n (%), the “serious adverse events / AEs leading to withdrawal” value ([1]; SAD and MAD cohorts of healthy volunteers) was “No serious adverse events (SAEs) or AEs leading to withdrawal” and the “related TEAE of grade 2 or less: headache” value ([1]; SAD cohorts) was 1 n. For the same molecule, the “related TEAE of grade 2 or less: transient ventricular tachycardia” value ([1]; SAD cohorts) was 1 n, the “Any TEAE, n (%)” value ([1]; SAD, N = 24) was 5 (21) n (%) and the “Any grade 3 or greater TEAE, n (%)” value ([1]; SAD, N = 24) was 1 (4) n (%). The “Drug interruption, reduction, or discontinuation due to TEAE, n (%)” value ([1]; SAD, N = 24) was 0 n (%), the cellular viability ([2]; 200 μM) was 90% and the cellular viability ([2]; concentrations ≤20 μM) was 100%. The “change from baseline for testosterone and estradiol levels” value [3] was “No effect on testosterone or estradiol levels; also recorded: no statistically significant changes”.
